One block for each compound: values may come before it. The source made the active and inactive calls. The rule behind the calls is not given here.
Tests used:
NB-4 [1] = assay: Antiproliferative activity against human NB4 cells assessed as inhibition of cell viability at 0.125 uM incubated for 3 days by CCK8 assay relative to control; format: functional; conditions: NB-4, 72 h, time 3 day
ATRA-resistant NB4-LR2 = assay: Antiproliferative activity against human ATRA-resistant NB4-LR2 cells assessed as effect on cell viability up to 2 uM incubated for 3 days by CCK8 assay; format: functional, cell-based; conditions: time 3.0 day
HEK293T = assay: Agonist activity at full length RARalpha LBD R276E mutant (unknown origin) transfected in HEK293T cells co-transfected with pG5luc reporter and Renilla-luc at 1 uM incubated for 12 hrs by luciferase reporter gene assay; format: cell-based; conditions: Homo sapiens, filed as agonist
[2] = molecular target: T1, Retinoic acid receptor gamma (Homo sapiens, UniProt P13631); assay: Agonist activity at Gal4-fused full length human RARgamma LBD transfected in HEK293T cells co-transfected with pG5luc reporter and Renilla-luc assessed as transactivation incubated for 12 hrs by dual luciferase reporter gene assay; format: cell-based; conditions: hek293t
T1 sequence (P13631 whole entry): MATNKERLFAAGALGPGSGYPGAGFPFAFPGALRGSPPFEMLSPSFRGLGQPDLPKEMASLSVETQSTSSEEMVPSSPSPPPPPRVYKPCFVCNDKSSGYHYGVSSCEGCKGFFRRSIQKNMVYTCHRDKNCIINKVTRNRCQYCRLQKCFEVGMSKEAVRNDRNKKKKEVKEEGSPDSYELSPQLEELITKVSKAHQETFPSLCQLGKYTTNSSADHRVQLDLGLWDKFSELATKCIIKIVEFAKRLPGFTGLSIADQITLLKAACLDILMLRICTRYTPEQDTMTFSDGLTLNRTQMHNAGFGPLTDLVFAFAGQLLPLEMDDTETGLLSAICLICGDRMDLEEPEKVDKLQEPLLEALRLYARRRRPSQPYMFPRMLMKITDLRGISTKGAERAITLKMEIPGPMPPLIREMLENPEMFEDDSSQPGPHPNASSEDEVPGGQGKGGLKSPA

[3] = molecular target: T2, Retinoic acid receptor alpha (Homo sapiens) (UniProt P10276); assay: Agonist activity at full length RARalpha LBD (unknown origin) transfected in HEK293T cells co-transfected with pG5luc reporter and Renilla-luc at 1 uM incubated for 12 hrs by luciferase reporter gene assay; format: cell-based; conditions: filed as agonist
T2 sequence (whole entry): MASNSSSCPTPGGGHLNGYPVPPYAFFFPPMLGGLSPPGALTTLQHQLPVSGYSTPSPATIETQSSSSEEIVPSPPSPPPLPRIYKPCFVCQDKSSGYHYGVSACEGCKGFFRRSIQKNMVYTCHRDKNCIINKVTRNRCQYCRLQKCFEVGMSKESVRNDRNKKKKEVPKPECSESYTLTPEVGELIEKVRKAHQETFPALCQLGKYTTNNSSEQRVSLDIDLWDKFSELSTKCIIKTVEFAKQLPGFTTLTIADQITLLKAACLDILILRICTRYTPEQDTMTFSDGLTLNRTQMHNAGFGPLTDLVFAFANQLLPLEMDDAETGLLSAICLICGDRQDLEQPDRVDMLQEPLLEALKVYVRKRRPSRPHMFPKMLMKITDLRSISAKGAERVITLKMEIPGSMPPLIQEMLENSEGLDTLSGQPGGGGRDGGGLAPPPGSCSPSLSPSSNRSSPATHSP

[4] = molecular target: T3, Retinoic acid receptor beta (Homo sapiens) (UniProt P10826); assay: Agonist activity at full length RARbeta LBD (unknown origin) transfected in HEK293T cells co-transfected with pG5luc reporter and Renilla-luc at 1 uM incubated for 12 hrs by luciferase reporter gene assay; format: cell-based; conditions: filed as agonist
T3 sequence (whole entry): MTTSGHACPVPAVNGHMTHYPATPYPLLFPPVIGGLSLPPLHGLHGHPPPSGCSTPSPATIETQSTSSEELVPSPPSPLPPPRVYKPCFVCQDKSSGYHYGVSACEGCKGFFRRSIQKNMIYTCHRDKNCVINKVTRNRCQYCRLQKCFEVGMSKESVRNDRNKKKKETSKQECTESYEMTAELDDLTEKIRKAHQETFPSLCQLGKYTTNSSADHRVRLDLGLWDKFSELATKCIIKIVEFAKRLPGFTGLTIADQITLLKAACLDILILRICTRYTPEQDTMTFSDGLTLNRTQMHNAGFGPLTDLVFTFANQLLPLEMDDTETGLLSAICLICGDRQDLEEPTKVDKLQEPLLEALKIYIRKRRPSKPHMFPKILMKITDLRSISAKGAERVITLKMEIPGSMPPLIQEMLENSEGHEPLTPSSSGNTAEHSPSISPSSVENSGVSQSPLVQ

[5] = molecular target: T4, Retinoic acid receptor gamma (Homo sapiens) (UniProt P13631); assay: Agonist activity at full length RARgamma LBD (unknown origin) transfected in HEK293T cells co-transfected with pG5luc reporter and Renilla-luc at 1 uM incubated for 12 hrs by luciferase reporter gene assay; format: cell-based; conditions: filed as agonist
T4 sequence (whole entry): T1 sequence (P13631 whole entry)

NB-4 [6] = assay: Cell cycle arrest in human NB4 cells assessed as accumulation of cells at sub-G1 phase at 1 uM incubated for 12 hrs by DAPI staining based flow cytometric analysis (reference value: 2 %); format: functional
[7] = Induction of apoptosis in human ATRA-resistant NB4-LR2 cells assessed as early apoptotic cells at 1 uM incubated for 24 hrs by Annexin V-FITC/PI staining based flow cytometric analysis (reference value: 1.41 %); format: functional
NB-4 [8] = assay: Cell cycle arrest in human NB4 cells assessed as accumulation of cells at S phase at 1 uM incubated for 12 hrs by DAPI staining based flow cytometric analysis (reference value: 20 %); format: functional
NB-4 [9] = assay: Cell cycle arrest in human NB4 cells assessed as accumulation of cells at G2/M phase at 1 uM incubated for 12 hrs by DAPI staining based flow cytometric analysis (reference value: 26 %); format: functional
[10] = Cell cycle arrest in human ATRA-resistant NB4-LR2 cells assessed as accumulation of cells at G2/M phase at 1 uM incubated for 12 hrs by DAPI staining based flow cytometric analysis (reference value: 28 %); format: functional
[11] = Cell cycle arrest in human ATRA-resistant NB4-LR2 cells assessed as accumulation of cells at G0/G1 phase at 1 uM incubated for 12 hrs by DAPI staining based flow cytometric analysis (reference value: 42 %); format: functional
[12] = Induction of apoptosis in human ATRA-resistant NB4-LR2 cells assessed as late apoptotic cells at 1 uM incubated for 24 hrs by Annexin V-FITC/PI staining based flow cytometric analysis (reference value: 5.62 %); format: functional
NB-4 [13] = assay: Induction of apoptosis in human NB4 cells assessed as early apoptotic cells at 1 uM incubated for 24 hrs by Annexin V-FITC/PI staining based flow cytometric analysis (reference value: 1.77 %); format: functional
NB-4 [14] = assay: Cell cycle arrest in human NB4 cells assessed as accumulation of cells at G0/G1 phase at 1 uM incubated for 12 hrs by DAPI staining based flow cytometric analysis (reference value: 51 %); format: functional
NB-4 [15] = assay: Induction of apoptosis in human NB4 cells assessed as late apoptotic cells at 1 uM incubated for 24 hrs by Annexin V-FITC/PI staining based flow cytometric analysis (reference value: 2.23 %); format: functional
[16] = Cell cycle arrest in human ATRA-resistant NB4-LR2 cells assessed as accumulation of cells at S phase at 1 uM incubated for 12 hrs by DAPI staining based flow cytometric analysis (reference value: 12 %); format: functional
[17] = molecular target: T2, Retinoic acid receptor alpha (Homo sapiens); assay: Agonist activity at full length RARalpha LBD (unknown origin) transfected in HEK293T cells co-transfected with pG5luc reporter and Renilla-luc assessed as transactivation at 0.5 to 1 uM incubated for 12 hrs by luciferase reporter gene assay; format: cell-based; conditions: filed as agonist, dose 0.5-1 µM
[18] = Cell cycle arrest in human ATRA-resistant NB4-LR2 cells assessed as accumulation of cells at sub-G1 phase at 1 uM incubated for 12 hrs by DAPI staining based flow cytometric analysis (reference value: 18 %); format: functional
NB-4 [19] = assay: Induction of cell differentiation in human NB4 cells assessed as NBT positive cells at 0.5 uM incubated for 6 days by Nitro Blue tetrazolium chloride based microscopic analysis (reference value: 0 %); format: functional; conditions: time 6 day

EC50 [2]: Not_determined(Unstable)
Compound: CC1(C)CCC(C)(C)c2cc(C(=O)Nc3ccc(C(=O)O)cc3)ccc21
inhibition at 0.125 µM (NB-4 [1]): ~40% | Activity (ATRA-resistant NB4-LR2): inactive | Activity (HEK293T): Active; Partial Impairment Observed

Activity [3]: Active
Compound: Cc1cc2c(cc1C(=O)/C=C/c1ccc(C(=O)O)cc1)C(C)(C)CCC2(C)C
Activity [4]: Active; Poor Subtype Selectivity Observed | Activity [5]: Active; Poor Subtype Selectivity Observed

Compound: Cc1cc2c(cc1C(=O)/C(I)=C/c1ccc(C(=O)O)cc1)C(C)(C)CCC2(C)C
Activity (NB-4 [6]): 2% | Activity [7]: 1.1% | Activity (NB-4 [8]): 11% | Activity (NB-4 [9]): 24% | Activity [10]: 30% | Activity [11]: 41% | Activity [12]: 6.66% | Activity (NB-4 [13]): 0.58% | Activity (NB-4 [14]): 63% | inhibition at 0.125 µM (NB-4 [1]): ~40% | Activity (NB-4 [15]): 4.24% | Activity [16]: 9% | Activity [17]: Active; Highly Raralpha Selective Agonistic Activity Observed | Activity [18]: 20% | Activity (NB-4 [19]): 78%

Reference: ChEMBL document CHEMBL6134780, “Halogenated retinoid derivatives as dual RARα and RXRα modulators for treating acute promyelocytic leukemia cells” (Eur J Med Chem, 2024)
